The text below walks through data of patent US20260232653A1, “USE OF CONDENSED AZACYCLE COMPOUNDS FOR THE TREATMENT OF LYSOSOMAL STORAGE DISORDERS” (Minerva Neurosciences, Inc., priority 2023, published 2026).

As a reminder, the IC50 is the concentration needed to halve the response being measured.

In one assay the test system is NPC1 protein. Briefly: Effect on NPC1 protein levels, Western blot densitometry in I1061T fibroblasts. The format is cell-based. Conditions: 0.3, 1 and 3 μM, 24 h, 48 h, 72 h, versus vehicle (FIGS. 1B-1D). As for the experimental part:
(§1) Healthy and I1061T fibroblasts (Coriell Institute Camden USA, cod. GM05659 (Healthy) and GM18453 (11061T)) were grown in air containing 5% CO2 in Dulbecco's Modified Eagle Medium (DMEM) medium, containing 10% v/v fetal calf serum, 2 mM L-glutamine, 0.1 mg/mL gentamicin, and 100 U/mL penicillin. Cells were passaged every 3 days.
1.5 mg of each of the compounds were weighed, dissolved in the proper solvent to reach a 3 mM concentration, kept at 4° C., and used within 15 days. The dilutions for the treatment were carried out in order to administer a 1:1000 volume. Specifically, 2 μL in 2 mL medium was administered. Ctr was made with DMSO.
Cells were washed twice in phosphate buffer saline (PBS), harvested with 1% v/v trypsin, and pelleted by centrifugation. Pellets were re-suspended in PBS containing 0.1 M sucrose, 0.05 M KCl, 0.04 M KH2PO4, 30 mM EDTA, pH 7.4, and sonicated. The protein concentration was determined by the Lowry method.
Samples were solubilized in 0.25 mM Tris-HCl, (pH 6.8) containing 20% (w/v) SDS, protease inhibitor cocktail (Merck #PIC0002), then boiled for 2 minutes. […]

A further assay relates to I1061T fibroblasts. Put plainly: LysoTracker cytofluorimetric analysis of lysosomal size. To be noted: after 48 hours, particularly at 0.3 μM (FIG. 3). It is filed as cell-based. Here is the method: as §1
Healthy and I1061T fibroblasts were cultured as in Example 1. To evaluate the effect of Compound No. 10 on lysosomal size, cells were treated with either 300 μM beta-cyclodextrin (CD), 2.5 μM Rim, 0.3 μM Compound No. 10 (CB), 1 μM Compound No. 10, 3 μM Compound No. 10, or vehicle control (ctr) for 72 hours. Following treatment, cytofluorimetric assays using Lysotracker™ (Life Technology #L7528) fluorescence as a tool was used and performed according to the manufacturer's instructions. LysoTracker™ provides fluorescence detection for live-cell staining of acidic environments and can be used for labeling and tracing acidic organelles such as lysosomes. Stained and unstained cells were analyzed by Cytofluorimeter CytoFLEX (Beckman Coulter). Data provided are the ratio of geometric (geo) mean of LysoTracker™ levels in stained divided by unstained samples, collected at 24 hours (FIG. 3, left), 48 hours (FIG. 3, middle), and 72 hours (FIG. 3, right).

Assay [1] deals with sigma 2/transmembrane protein 97 ("TMEM97") receptors (Homo sapiens, UniProt Q5BJF2). Conditions: antagonist of the sigma receptor; known in the art; cited from earlier work.
Sequence of sigma 2/transmembrane protein 97 ("TMEM97") receptors (Q5BJF2 whole entry, species assumed): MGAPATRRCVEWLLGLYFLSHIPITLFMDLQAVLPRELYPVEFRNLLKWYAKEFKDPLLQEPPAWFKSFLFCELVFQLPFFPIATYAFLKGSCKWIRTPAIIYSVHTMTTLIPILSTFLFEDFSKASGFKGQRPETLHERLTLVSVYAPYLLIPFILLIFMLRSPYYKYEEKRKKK
In assay [2] the test system is mouse model of Niemann-Pick Disease, Type C. To be noted: WO 2014/022841; cited from earlier work.

For `CC1(C)CCN(C2CCCC2)Cc2cc(-c3ccc(C(F)(F)F)cc3)ccc21` [Compound No. 10, 2-cyclopentyl-5,5-dimethyl-8-(4-(trifluoromethyl)phenyl)-2,3,4,5-tetrahydro-1H-benzo[c]azepine], the “effect on NPC1 protein expression” value in the assay on NPC1 protein is “did not have a statistically significant effect”. The “fluorescence of the lysosomes (Lysotracker geo mean ratio), representing lysosomal size” value with I1061T fibroblasts is reported as “increase”.
As for `C[C@@H]1CN(CCCn2c3ccccc3c3ccccc32)C[C@H](C)N1` [Rimcazole, 9-[3-(3,5-cis-dimethylpiperazino)propyl]-carbazole], the IC50 in assay [1] is 386 nM.
`OC[C@H]1O[C@@H]2O[C@H]3[C@H](O)[C@@H](O)[C@@H](O[C@H]4[C@H](O)[C@@H](O)[C@@H](O[C@H]5[C@H](O)[C@@H](O)[C@@H](O[C@H]6[C@H](O)[C@@H](O)[C@@H](O[C@H]7[C@H](O)[C@@H](O)[C@@H](O[C@H]8[C@H](O)[C@@H](O)[C@@H](O[C@H]1[C@H](O)[C@H]2O)O[C@@H]8CO)O[C@@H]7CO)O[C@@H]6CO)O[C@@H]5CO)O[C@@H]4CO)O[C@@H]3CO` [beta-cyclodextrin]: in assay [2], the cholesterol accumulation result is listed as “reduced” and the neuronal cell loss entry is “reduced”.
